Test results taken from patent publication US10227347B2, “Purinyl-N-hydroxyl pyrimidine formamide derivative, preparation methods and uses thereof” (Guizhou Bailing Group Pharmaceutical CO., LTD., priority 2015, dated 2019).
Like-named read-outs stand apart in the source and are kept apart here.

Tests used:
PI3Kα = biological target: T1, PI3Kα (Homo sapiens, UniProt P42336); test: PI3Kα activity inhibition (Kinase-Glo); assay type: biochemical; settings: read-out: PI3Kα IC50
T1 construct: purchased Invitrogen PV4788
T1 sequence (P42336 whole entry, species assumed): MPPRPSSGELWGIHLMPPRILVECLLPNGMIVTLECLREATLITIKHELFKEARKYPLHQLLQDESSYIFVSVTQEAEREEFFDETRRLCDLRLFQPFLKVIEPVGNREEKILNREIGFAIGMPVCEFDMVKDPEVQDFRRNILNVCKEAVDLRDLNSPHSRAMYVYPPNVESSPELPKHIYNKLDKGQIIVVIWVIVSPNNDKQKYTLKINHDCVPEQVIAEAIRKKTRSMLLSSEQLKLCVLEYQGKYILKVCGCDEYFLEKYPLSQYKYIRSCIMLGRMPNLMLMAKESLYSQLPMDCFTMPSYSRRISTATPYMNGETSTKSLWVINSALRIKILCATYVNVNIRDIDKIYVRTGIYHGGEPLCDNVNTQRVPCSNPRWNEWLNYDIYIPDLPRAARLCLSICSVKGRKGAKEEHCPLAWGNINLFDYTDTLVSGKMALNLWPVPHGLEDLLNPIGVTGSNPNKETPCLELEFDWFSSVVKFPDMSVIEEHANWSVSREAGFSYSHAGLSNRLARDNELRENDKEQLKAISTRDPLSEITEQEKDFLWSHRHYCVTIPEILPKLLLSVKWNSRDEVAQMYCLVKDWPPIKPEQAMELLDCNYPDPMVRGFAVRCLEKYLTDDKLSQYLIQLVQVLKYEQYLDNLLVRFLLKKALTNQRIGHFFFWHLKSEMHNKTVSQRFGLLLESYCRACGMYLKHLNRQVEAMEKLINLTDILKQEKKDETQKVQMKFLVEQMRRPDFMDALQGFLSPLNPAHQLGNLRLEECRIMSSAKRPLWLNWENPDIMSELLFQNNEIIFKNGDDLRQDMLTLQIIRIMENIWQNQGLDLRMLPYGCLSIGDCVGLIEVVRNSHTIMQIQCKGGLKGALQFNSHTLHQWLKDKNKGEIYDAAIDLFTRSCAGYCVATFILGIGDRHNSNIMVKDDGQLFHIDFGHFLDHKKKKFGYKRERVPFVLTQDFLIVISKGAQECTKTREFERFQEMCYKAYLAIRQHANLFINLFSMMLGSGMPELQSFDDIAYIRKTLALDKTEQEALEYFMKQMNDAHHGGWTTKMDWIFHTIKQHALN
T1 sequence (P27986 whole entry partner, species assumed): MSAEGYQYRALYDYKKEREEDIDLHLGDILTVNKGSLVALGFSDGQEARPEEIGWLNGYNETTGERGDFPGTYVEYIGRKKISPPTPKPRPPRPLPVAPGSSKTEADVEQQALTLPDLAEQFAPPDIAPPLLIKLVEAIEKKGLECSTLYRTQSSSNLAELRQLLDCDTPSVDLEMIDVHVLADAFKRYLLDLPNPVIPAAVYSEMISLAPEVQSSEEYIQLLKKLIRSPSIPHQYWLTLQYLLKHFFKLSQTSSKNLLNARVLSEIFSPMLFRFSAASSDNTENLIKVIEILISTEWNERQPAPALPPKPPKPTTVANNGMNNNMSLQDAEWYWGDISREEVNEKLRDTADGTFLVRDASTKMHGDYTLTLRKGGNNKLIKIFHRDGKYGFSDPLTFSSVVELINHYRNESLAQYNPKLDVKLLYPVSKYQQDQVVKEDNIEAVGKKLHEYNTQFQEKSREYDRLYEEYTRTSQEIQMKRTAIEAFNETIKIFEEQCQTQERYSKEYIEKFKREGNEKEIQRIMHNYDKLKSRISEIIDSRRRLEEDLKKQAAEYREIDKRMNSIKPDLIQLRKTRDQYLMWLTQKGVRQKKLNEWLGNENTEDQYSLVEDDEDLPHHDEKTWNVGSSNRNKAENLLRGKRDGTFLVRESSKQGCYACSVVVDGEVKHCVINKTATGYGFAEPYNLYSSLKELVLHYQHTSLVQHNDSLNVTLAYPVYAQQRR
Method in brief: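 Kinase-Glo luminescence read-out of remaining ATP after PI3K reaction with PIP2 and ATP substrates in 50 mM HEPES pH 7.5, 3 mM MgCl2, 1 mM EGTA, 100 mM NaCl, 0.03% CHAPS, 2 mM DTT. Incubated at ambient temperature, 1 h for PI3Kα, 2 h for PI3Kδ. IC50 from four-parameter fit of % inhibition versus concentration.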

PI3Kβ = biological target: T2, PI3Kβ (Homo sapiens, UniProt P42338); test: PI3Kβ activity inhibition (ADP-Glo); assay type: biochemical; settings: Table 4, graded
T2 construct: purchased Millipore 14-603-K
T2 sequence (P42338 whole entry, species assumed): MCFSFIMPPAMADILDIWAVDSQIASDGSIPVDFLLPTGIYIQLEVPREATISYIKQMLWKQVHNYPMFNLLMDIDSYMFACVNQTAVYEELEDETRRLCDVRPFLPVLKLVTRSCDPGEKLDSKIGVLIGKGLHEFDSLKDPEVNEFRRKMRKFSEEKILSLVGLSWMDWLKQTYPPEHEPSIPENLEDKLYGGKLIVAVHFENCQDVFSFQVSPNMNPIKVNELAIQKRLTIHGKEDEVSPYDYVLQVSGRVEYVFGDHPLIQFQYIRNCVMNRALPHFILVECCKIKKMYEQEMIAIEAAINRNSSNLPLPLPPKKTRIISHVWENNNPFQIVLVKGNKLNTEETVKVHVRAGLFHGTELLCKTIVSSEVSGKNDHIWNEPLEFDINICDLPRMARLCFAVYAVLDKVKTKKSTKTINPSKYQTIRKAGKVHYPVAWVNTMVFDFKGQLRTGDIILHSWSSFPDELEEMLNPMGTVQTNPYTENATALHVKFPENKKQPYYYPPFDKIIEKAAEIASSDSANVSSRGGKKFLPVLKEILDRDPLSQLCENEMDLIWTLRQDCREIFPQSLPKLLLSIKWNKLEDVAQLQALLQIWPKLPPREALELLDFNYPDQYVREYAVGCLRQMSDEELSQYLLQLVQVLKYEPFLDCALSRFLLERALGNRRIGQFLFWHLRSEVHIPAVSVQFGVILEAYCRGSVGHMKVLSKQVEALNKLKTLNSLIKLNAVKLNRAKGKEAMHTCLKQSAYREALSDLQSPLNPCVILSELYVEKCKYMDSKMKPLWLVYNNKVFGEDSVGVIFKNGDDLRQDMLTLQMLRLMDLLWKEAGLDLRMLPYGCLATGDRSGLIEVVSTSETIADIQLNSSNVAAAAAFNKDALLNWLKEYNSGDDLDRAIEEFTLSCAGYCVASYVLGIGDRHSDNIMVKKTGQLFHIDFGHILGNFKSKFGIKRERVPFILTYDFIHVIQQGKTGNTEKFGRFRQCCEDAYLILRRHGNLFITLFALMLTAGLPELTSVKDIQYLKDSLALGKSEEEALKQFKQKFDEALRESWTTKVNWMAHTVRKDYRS
T2 sequence (P27986 whole entry partner, species assumed): as the sequence (P27986 whole entry partner, species assumed) above
Experimental: (§1) Detecting the inhibition capability of the compound to PI3Kβ and PI3Kγ activities with ADP-Glo (purchased from Promege Company; Catalog No.: v9102/3). […] The reaction system also comprises substrates as PIP2 and ATP. The reaction buffer system comprises 50 mM HEPES, 3 mM MgCl2, 1 mM EGTA, 100 mM NaCl, 0.03% CHAPS and 2 mM DTT. The pH value of the reaction buffer is 7.5. […] Mixing the system evenly for incubation under ambient temperature for 1 h; getting a new 384 well plate and transferring 5 μL reaction liquid from the each well of original 384 well plate to the corresponding wells of the new 384 well plate; adding 5 μL ADP-Glo which has been preheated to ambient temperature into each new reaction well to terminate the reaction; oscillating it slowly in dark place for 40 min's incubation after it is mixed evenly; adding 10 μL testing liquid in each reaction well, oscillating it for 1 min to mix evenly and incubating it for 1 h, then measuring the fluorescence intensity with a microplate reader and analyzing the result data with the software GraphPad Prism.
(§2) Calculating the value of IC50 as per the formula: Y=background data+(top data−background data)/(1+10^((Log IC50−X)*rate of curve))
(§3) Where, Y refers to the inhibition ratio (%) and X refers to the compound concentration.

PI3Kδ = biological target: T3, PI3Kδ (Homo sapiens, UniProt O00329); test: PI3Kδ activity inhibition (Kinase-Glo); assay type: biochemical; settings: Table 4, graded
T3 construct: purchased Millipore 14-604-K
T3 sequence (O00329 whole entry): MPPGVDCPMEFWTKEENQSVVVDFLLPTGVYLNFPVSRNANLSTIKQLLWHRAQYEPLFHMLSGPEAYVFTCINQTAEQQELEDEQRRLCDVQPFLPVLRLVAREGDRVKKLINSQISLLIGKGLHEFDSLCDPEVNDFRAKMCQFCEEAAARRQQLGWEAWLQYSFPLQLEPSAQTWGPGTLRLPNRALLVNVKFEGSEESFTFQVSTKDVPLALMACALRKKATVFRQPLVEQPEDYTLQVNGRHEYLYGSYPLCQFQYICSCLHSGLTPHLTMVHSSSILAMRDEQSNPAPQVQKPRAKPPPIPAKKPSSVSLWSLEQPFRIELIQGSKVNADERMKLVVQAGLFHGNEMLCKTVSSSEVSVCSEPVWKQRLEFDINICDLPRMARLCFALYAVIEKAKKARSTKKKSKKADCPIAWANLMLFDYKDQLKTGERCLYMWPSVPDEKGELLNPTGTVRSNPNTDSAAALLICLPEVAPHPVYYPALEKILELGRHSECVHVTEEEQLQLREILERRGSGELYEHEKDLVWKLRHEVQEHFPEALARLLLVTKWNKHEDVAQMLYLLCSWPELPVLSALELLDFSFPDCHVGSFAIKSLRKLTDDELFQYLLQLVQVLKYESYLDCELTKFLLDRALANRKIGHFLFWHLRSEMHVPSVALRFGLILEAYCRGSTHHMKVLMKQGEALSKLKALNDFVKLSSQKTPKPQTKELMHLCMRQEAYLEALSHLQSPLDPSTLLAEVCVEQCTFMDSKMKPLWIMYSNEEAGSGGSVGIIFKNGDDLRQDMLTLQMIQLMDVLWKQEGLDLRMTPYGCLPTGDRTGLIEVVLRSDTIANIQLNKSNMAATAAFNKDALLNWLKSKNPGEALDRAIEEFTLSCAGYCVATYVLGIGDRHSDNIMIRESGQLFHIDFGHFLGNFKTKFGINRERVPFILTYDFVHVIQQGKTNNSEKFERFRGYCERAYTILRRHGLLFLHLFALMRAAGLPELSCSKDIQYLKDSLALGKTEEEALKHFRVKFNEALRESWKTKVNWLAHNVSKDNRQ
T3 sequence (P27986 whole entry partner): as the sequence (P27986 whole entry partner, species assumed) above
Experimental: Detecting the inhibition capability of the compound to PI3Kα and PI3Kδ activities with Kinase-Glo (purchased from Promege Company; Catalog No.: V3771). […] The reaction system also comprises substrates as PIP2 (4, 5-diphosphoinositide, purchased from Life Technologies Company) and ATP (triphosadenine, purchased from Sigma Company). The reaction buffer system comprises 50 mM HEPES (4-hydroxyethylpiperazine ethane sulfonic acid), 3 mM MgCl2, 1 mM EGTA (ethylene glycol bis(2-amino ethylether)quadrol), 100 mM NaCl, 0.03% CHAPS (3-[3-(cholamidopropyl)dimethylamino]-1-propanesulfonic acid), 2 mM DTT (dithiothreitol). The pH value of the reaction buffer is 7.5. […] Mixing the system evenly for incubation under ambient temperature (for 1 h in PI3Kα test and for 2 h in PI3Kδ test). After incubation, adding 10 μL Kinase-Glo which has been preheated to ambient temperature into each reaction well to terminate the reaction; shaking it in dark place for 15 min after it is mixed evenly, then measuring the fluorescence intensity with a microplate reader and analyzing the result data with the software GraphPad Prism.
as §2, §3

PI3Kγ [1] = biological target: T4, PI3Kγ (Homo sapiens, UniProt P48736); test: PI3Kγ activity inhibition (ADP-Glo); assay type: biochemical; settings: Table 4, graded
T4 construct: purchased Invitrogen PR8641C
T4 sequence (P48736 whole entry): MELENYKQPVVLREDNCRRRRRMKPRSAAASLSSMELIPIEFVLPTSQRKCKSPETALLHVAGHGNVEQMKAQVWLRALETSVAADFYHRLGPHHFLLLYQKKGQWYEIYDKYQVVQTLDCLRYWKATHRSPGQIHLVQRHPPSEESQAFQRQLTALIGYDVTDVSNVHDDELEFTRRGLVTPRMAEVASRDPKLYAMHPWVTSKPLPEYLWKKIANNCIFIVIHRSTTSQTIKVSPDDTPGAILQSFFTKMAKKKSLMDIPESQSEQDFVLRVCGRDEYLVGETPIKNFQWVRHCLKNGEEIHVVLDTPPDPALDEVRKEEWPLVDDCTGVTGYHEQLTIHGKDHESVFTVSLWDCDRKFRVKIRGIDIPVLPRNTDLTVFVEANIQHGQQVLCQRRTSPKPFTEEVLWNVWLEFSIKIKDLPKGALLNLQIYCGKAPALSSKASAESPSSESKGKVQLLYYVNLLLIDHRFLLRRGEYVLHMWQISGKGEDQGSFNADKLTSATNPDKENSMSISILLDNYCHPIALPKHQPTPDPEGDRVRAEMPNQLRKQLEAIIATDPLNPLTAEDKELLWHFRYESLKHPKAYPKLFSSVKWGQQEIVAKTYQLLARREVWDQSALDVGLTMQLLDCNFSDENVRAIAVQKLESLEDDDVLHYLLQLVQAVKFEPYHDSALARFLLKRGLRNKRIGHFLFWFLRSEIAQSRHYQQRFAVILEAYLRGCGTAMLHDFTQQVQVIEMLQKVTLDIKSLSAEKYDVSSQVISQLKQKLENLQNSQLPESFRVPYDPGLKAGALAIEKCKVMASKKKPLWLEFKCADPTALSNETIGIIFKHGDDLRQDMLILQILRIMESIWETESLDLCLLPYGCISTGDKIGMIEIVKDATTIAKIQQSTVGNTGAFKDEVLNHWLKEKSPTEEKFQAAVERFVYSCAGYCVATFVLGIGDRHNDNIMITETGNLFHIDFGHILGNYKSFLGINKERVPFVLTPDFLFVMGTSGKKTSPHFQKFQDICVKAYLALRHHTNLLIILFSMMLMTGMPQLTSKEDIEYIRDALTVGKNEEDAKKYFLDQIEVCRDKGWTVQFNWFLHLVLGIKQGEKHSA
Experimental: as §1, §2, §3

[2] = tested on: MV4-11 cells (acute myeloid leukemia); test: Cell proliferation inhibition, MV4-11 (cck-8); assay type: cell-based; settings: Homo sapiens, 96 h incubation, read-out: Proliferation IC50, Acute myeloid leukemia MV4-11
Method in brief: (§4)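 Cells seeded at 2000-3000/well; adherent lines dosed after attachment, then 96 h incubation with compound. Viability read by MTT for solid-tumour lines (HCT116, A2780s) and CCK-8 for MV4-11; IC50 from four-parameter logistic fit of inhibition ratio versus concentration.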

[3] = tested on: hct116 cells (colon cancer); test: Cell proliferation inhibition, hct116 (MTT); assay type: cell-based; settings: Homo sapiens, HCT-116; 96 h incubation; read-out: Proliferation IC50, Colon cancer hct116
Method in brief: as §4

[4] = tested on: A2780s cells (ovarian cancer); test: Cell proliferation inhibition, A2780s (MTT); assay type: cell-based; settings: Homo sapiens, 96 h incubation, read-out: Proliferation IC50, Ovarian cancer A2780s
Method in brief: as §4

[5] = tested on: acetylated Ac-α-tubulin in A2780s cells; test: Induction of α-tubulin acetylation in A2780s cells (cytoblot); assay type: cell-based; settings: Homo sapiens, 6 h treatment, read-out: Ac-Tub EC50
Experimental: (§5) Specific operation: After the treatment, washing each well once with 50-100 μl of cold TBS buffer [with the composition as 20 mM Tris (trismetyl aminomethane), pH7.5] and fixing it with 100 μL of 4% pre-cooled paraformaldehyde at 4° C. for 1 h; after paraformaldehyde is washed off, adding 50 μL of pre-cooled methyl alcohol in each well and evenly spreading at 4° C. for 5 min; after methyl alcohol is washed off, washing it once with the TBS buffer containing 3% skim milk powder and adding 50 μL of antibody fluid, oscillating it slightly at 4° C. and incubating overnight. For determination of Ac—H3, the antibody fluid is prepared by diluting Ac—H3 antibody and horseradish peroxide coupled secondary antibody to a same system with the TBS buffer containing 3% skim milk powder (Ac—H3 antibody is purchased from Santa Cruz Company and diluted at a ratio of 1:100; horseradish peroxide coupled secondary antibody is purchased from Jackson Company and diluted at a ratio of 1:2000); for determination of acetylated Ac-α-tubulin, the antibody fluid is prepared by diluting Ac-α-tubulin antibody and horseradish peroxide coupled secondary antibody to a same system with the TBS buffer containing 3% skim milk powder (Ac-α-tubulin antibody is purchased from Santa Cruz Company and diluted at a ratio of 1:100; horseradish peroxide coupled secondary antibody is purchased from Jackson Company and diluted at a ratio of 1:2000).
(§6) Calculating the value of IC50 as per the formula: Y=background data+(top data−background data)/(1+10^((Log EC50−X)*rate of curve)) Where, Y refers to the activating rate (%) and X refers to the compound concentration.

[6] = tested on: acetylated histone H3 (Ac-H3) in A2780s cells; test: Induction of histone H3 acetylation in A2780s cells (cytoblot); assay type: cell-based; settings: Homo sapiens, 6 h treatment
Experimental: as §5, §6

[7] = tested on: MV4-11 subcutaneous tumor; settings: once per two days, 22 days
Excerpt: During drug administration, measuring the weight and gross tumor volume of the mice per 2 days and keeping a record. The calculation formula is as V=π/6×A^2×B, where, where, V=gross tumor volume (mm^3), A=tumor width (mm) and B=tumor length (mm). Observing and keeping a record for the survival condition of the tested animals. After drug discontinuance, killing the mice through cervical dislocation and peeling off their tumors as per the operation specification of animal experiment. Evaluating the inhibition capability of the compounds to tumor activities by calculating the tumor inhibitory rate with the formula as: tumor inhibitory rate=(1−tumor weight of treatment group/tumor weight of control group)×100%. Analyzing and comparing the difference between each treatment group and control group with the method of t-test. The grading of significance level of difference is: ***, P<0.001; **, P<0.01; *, P<0.05; no statistical significance (ns), P>0.05.

[8] = tested on: U266 cells (multiple myeloma); test: Proliferation inhibition, U266 (cck-8); assay type: cell-based; settings: Homo sapiens, U-266; 96 h incubation
Excerpt: (§7) Calculating the value of IC50 as per the formula: Y=background data+(top data−background data)/(1+10^((Log IC50−X)*rate of curve)). Where, Y refers to the inhibition ratio (%) and X refers to the compound concentration.

[9] = tested on: RPMI-8226 cells (multiple myeloma); test: Proliferation inhibition, RPMI-8226 (cck-8); assay type: cell-based; settings: Homo sapiens, 96 h incubation
Excerpt: as §7

[10] = tested on: MM1S cells (multiple myeloma); test: Proliferation inhibition, MM1S (cck-8); assay type: cell-based; settings: Homo sapiens, MM1.S; 96 h incubation
Excerpt: as §7

[11] = tested on: OCI-LY1 cells (B-cell lymphoma); test: Proliferation inhibition, OCI-LY1 (cck-8); assay type: cell-based; settings: Homo sapiens, 96 h incubation
Excerpt: as §7

[12] = tested on: HBL-1 cells (B-cell lymphoma); test: Proliferation inhibition, HBL-1 (cck-8); assay type: cell-based; settings: Homo sapiens, HBL1; 96 h incubation
Excerpt: as §7

[13] = tested on: Ramos cells (B-cell lymphoma); test: Proliferation inhibition, Ramos (cck-8); assay type: cell-based; settings: Homo sapiens, 96 h incubation
Excerpt: as §7

[14] = tested on: SUDHL-4 cells (B-cell lymphoma); test: Proliferation inhibition, SUDHL-4 (cck-8); assay type: cell-based; settings: Homo sapiens, SU-DHL-4; 96 h incubation
Excerpt: as §7

[15] = tested on: human colon cancer hct116 subcutaneous tumor; test: Subcutaneous tumor model, human colon cancer hct116; settings: 50 mg/kg, once per 2 days, intraperitoneal
PI3Kγ [16] = settings: read-out: inhibition value to activity of PI3Kγ; literature [1]; cited from earlier work

With `CN(Cc1nc2c(N3CCOCC3)nc(-c3ccncc3)nc2n1C)c1ncc(C(=O)NO)cn1` [CLJ-8, 2-(((2-(4-pyridyl)-9-methyl-6-morpholine-9H-purine-8-yl))methyl(methyl)amino)-N-hydroxyl pyrimidine-5-formamide] the IC50 (PI3Kα; Table 1, graded) was 1000 to 10000 nM, the IC50 (PI3Kα; Table 4, graded) was 1000 to 10000 nM and the IC50 (PI3Kβ) was greater than 10000 nM. For the same molecule, the IC50 (PI3Kδ) was greater than 10000 nM, the IC50 (PI3Kγ [1]) was greater than 10000 nM and the IC50 [2] was 0.1 to 10 nM. It also gave an IC50 [3] of 10 to 100 nM, an IC50 [4] of 0.1 to 10 nM and an EC50 [5] of 100 to 200 nM. For the same molecule, the EC50 [6] was 100 to 200 nM, the “Final survival condition (survived individuals/total individuals)” value ([7]; 10 mg/kg i.v.) was 5/6 and the IC50 [8] was 1 to 10 nM. For the same molecule, the IC50 [9] was 1 to 10 nM, the IC50 [10] was 0.1 to 1 nM and the IC50 [11] was 1 to 10 nM. It also gave an IC50 [12] of 1 to 10 nM, an IC50 [13] of 0.1 to 1 nM and an IC50 [14] of 1 to 10 nM.
In the case of `O=C(CCCCCCC(=O)Nc1ccccc1)NO` [SAHA, vorinostat, reference compound], the “Final survival condition (survived individuals/total individuals)” value ([7]; 50 mg/kg i.p.) is reported as 6/6 and the Death [15] is reported as 0/6.
In the case of `COc1ccc(-c2nc(N3CCOCC3)c3sc(CN(C)c4ncc(C(=O)NO)cn4)cc3n2)cn1` [CUDC-907], the IC50 (PI3Kγ [16]) is given as 39 nM.
